Biological target: T1, TOP1cc (Homo sapiens, UniProt P11387)
T1 construct: paired pre-treatment and on-treatment tumor biopsies (C1D2, 2–4 h after dosing) from 6 patients receiving LMP744 at the MTD; from tissue; host or cells: core needle tumor biopsies from patients (LMP744 expansion cohort)
T1 sequence (P11387 2-765 limits assumed): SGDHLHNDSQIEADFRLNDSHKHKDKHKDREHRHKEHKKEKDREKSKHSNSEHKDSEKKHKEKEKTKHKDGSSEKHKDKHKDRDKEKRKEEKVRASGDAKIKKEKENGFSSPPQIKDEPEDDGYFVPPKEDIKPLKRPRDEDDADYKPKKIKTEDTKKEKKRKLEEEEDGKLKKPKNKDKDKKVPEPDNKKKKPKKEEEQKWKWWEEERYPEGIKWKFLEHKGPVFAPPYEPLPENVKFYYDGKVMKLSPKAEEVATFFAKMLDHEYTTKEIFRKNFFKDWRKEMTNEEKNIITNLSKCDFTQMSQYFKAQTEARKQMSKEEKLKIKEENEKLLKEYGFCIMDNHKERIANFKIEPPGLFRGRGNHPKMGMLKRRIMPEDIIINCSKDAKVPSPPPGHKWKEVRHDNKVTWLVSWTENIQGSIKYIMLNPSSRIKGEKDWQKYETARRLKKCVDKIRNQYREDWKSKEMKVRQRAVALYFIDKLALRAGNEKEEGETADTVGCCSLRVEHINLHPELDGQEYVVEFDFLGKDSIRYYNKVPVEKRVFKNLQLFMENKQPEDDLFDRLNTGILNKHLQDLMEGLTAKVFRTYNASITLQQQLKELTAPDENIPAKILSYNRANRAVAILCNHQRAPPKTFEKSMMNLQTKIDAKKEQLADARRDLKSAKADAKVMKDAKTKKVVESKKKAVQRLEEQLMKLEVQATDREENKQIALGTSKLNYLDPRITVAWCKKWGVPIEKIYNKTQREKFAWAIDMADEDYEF
Assay: qIF of paired tumor biopsies: TOP1cc foci
Format: in vivo
Conditions: for TOP1cc: C1D2
Source text: The LMP744 protocol collected pre-treatment (baseline) and on-treatment paired biopsies from patients in the expansion cohort. Core needle tumor biopsies (18-gauge) were collected and flash-frozen at point of collection per NCI SOPs (https://dctd.cancer.gov/ResearchResources/biomarkers/docs/par/SOP340507_Biopsy_Frozen.pdf) as described to preserve labile post-translational modifications such as phosphorylation. Biopsy pairs were thawed in formalin, fixed in paraffin embedded together with control tissues following NCI SOP340550 (https://dctd.cancer.gov/ResearchResources/biomarkers/DDR3/SOP340550_Biopsy_Section_Testis_Jejunum_Controls.pdf). TOP1 and TOP1cc were measured with a cocktail containing custom-conjugated rabbit monoclonal antibody anti-TOP1-DIG (Abcam, EPR5376 (2)) and mouse monoclonal antibody anti-TOP1cc (clone 1.1A [34, 35], EMD Millipore) that were detected with reporter secondary antibodies AlexaFluor-647 IgG fraction monoclonal mouse anti-digoxin (Jackson ImmunoResearch) and goat/anti-mouse AlexaFluor-488, respectively. Phosphorylated KAP1 (pKAP1, phosphorylated at S824) was measured using custom-conjugated pKAP1-pS824-DNP (Abcam, EPR5248) and detected with AlexaFluor-488 conjugated with anti-dinitrophenyl-KLH rabbit IgG Antibody Fraction (DNP-488, ThermoFisher). […] TOP1, γH2AX, pNBS1, and pKAP1 were measured as the percentage of DAPI-stained tumor cell nuclear area that was positive for the biomarker (% NAP); RAD51 [19] and TOP1cc was measured as a function of the percentage of nuclei with ≥ 5 foci (RAD51) or ≥ 19 foci (TOP1cc). Apoptosis was measured using a validated IFA of tumor cells positive for both cCasp3 blebbing in the cytoplasm and γH2AX in the nucleus. Anti-SLFN11 rabbit monoclonal antibody (Cell Signaling Technology, clone D8W1B) was detected by immunohistochemistry (IHC) using Bond Polymer Detection kit (Leica) and scanned in 20X widefield Aperio (Leica), and the distribution of staining intensity of tumor cell nuclei graded as 0, 1 + , 2 + or 3 + was converted into an H-score. […]

COc1cc2c3c(n(CCCNCCO)c(=O)c2cc1OC)-c1cc2c(cc1C3=O)OCO2 [LMP744]
TOP1cc, change in the biopsy cohort (6 patients at MTD, P = 0.1373): no significant changes | TOP1cc (patient 29, MTD): neither biomarker changed with treatment | TOP1cc (patient 31, MTD): decreased nearly to background levels

— publication PMC12122562, “Phase 1 studies of the indenoisoquinolines LMP776 and LMP744 in patients with solid tumors and lymphomas” (Cancer Chemotherapy and Pharmacology, 2025)
